This passage reports IC50 results from ChEMBL document CHEMBL2439978, “Perindopril and ramipril phosphonate analogues as a new class of angiotensin converting enzyme inhibitors” (Bioorg Med Chem, 2013).

Experiment [1] concerns the target T1, Angiotensin-converting enzyme (Homo sapiens, UniProt P12821). Put plainly: Inhibition of recombinant human ACE using (7-methoxycoumarin-4-yl)acetyl-Arg-Pro-Pro-Gly-Phe-Ser-Ala-Phe-Lys(2,4-dinitrophenyle)-OH as substrate after 30 mins by fluorescence assay.
The target of experiment [2] is T1, Angiotensin-converting enzyme. Put plainly: Inhibition of ACE (unknown origin).

T1 sequence (P12821 whole entry): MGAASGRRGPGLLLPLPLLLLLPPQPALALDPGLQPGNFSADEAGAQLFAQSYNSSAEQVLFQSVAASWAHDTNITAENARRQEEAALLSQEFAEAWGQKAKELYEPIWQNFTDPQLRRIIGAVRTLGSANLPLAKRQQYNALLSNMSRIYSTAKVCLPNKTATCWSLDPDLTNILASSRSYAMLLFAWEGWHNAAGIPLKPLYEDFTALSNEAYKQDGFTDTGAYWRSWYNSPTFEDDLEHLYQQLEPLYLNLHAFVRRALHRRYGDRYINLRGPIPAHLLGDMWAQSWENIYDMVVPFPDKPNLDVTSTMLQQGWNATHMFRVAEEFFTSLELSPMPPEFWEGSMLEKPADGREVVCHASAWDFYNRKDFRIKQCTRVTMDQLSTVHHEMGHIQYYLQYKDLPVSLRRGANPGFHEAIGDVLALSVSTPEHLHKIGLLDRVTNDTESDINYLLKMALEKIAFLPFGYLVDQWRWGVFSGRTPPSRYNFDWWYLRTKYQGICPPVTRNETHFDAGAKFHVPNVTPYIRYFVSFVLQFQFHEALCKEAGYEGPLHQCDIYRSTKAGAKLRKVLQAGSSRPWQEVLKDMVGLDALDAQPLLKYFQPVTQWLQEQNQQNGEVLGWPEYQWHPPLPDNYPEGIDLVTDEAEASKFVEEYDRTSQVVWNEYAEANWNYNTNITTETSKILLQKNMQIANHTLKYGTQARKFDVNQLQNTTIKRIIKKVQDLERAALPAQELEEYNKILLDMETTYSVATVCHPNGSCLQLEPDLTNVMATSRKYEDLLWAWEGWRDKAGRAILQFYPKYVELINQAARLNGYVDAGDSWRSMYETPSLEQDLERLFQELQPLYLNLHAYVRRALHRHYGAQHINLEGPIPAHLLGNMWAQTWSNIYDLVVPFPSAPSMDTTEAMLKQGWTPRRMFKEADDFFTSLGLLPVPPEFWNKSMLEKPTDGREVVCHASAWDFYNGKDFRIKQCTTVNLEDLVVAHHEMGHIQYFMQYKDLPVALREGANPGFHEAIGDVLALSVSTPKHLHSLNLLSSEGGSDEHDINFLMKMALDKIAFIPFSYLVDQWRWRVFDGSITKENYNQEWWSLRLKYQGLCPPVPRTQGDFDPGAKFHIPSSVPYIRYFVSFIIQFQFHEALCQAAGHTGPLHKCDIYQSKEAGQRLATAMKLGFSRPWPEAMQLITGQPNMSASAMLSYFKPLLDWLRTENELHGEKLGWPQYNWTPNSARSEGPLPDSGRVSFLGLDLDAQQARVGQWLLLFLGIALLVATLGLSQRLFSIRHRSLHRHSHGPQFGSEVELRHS

As to `CCCC(N[C@@H](C)C(=O)N1[C@H](C(=O)O)C[C@@H]2CCCC[C@@H]21)P(=O)(O)O` (stereo partly drawn), the IC50 in experiment [1] is 30 nM.

Take `C[C@H](NC(CCc1ccccc1)P(=O)(O)O)C(=O)N1[C@H](C(=O)O)C[C@@H]2CCCC[C@@H]21` (stereo partly drawn): in experiment [1], the half-maximal inhibitory concentration (IC50) amounted to 40 nM.

Take `CCC[C@H](N[C@@H](C)C(=O)N1[C@H](C(=O)O)C[C@@H]2CCCC[C@@H]21)C(=O)OCC` [PERINDOPRIL]: in experiment [2], the IC50 was found to be 1.5 nM.

As usually defined, the IC50 is the concentration that inhibits the measured activity by half.
